# Data from PMC12274840 (The Journal of Biological Chemistry, 2025).
# Where two headings read alike, the source gives them in different places.
# Tests used:
# [1] = system: E. coli KA797 cells carrying pUK21 with NmcA (pelB/Sec); test: microbe, parasite or virus in culture; type: cell-based; conditions: Escherichia coli, antibiotic alone
# [2] = system: E. coli KA797 cells carrying pUK21 with TEM-1 WT (Sec); test: microbe, parasite or virus in culture; type: cell-based; conditions: Escherichia coli, antibiotic alone
# BlaC WT = biological target: T1, BlaC WT (Mycobacterium tuberculosis, UniProt P9WKD3); type: biochemical; conditions: pH 6.4
# T1 construct: correspond to residue numbers 41-307 of BlaC (Uniprot entry P9WKD3-1); His tag with TEV cleavage site (N); made in house; host or cells: E. coli BL21 (DE3) pLysS
# CTX-M-14 Y105G = biological target: T2, CTX-M-14 Y105G (Escherichia coli, UniProt Q9L5C7, Y108G); type: biochemical
# T2 construct: 29 to 291 of CTX-M-14 (Q9L5C7); His tag with TEV cleavage site (N); made in house; host or cells: E. coli BL21 (DE3) pLysS
# TEM-1 Y105G = TEM-1 Y105G (Escherichia coli, UniProt P62593, Y103G); test: Steady-state kinetics of substrate hydrolysis, TEM-1 Y105G; type: biochemical; conditions: phosphate buffer pH 6.4, 25 °C
# [3] = system: E. coli KA797 cells carrying KPC-2 position 105 library; type: cell-based; conditions: selection with labelled antibiotic
# [4] = system: E. coli KA797 cells carrying TEM-1 position 105 library; type: cell-based; conditions: for Fi AMP AVG: average of replicates
# TEM-1 WT = TEM-1 WT (Escherichia coli, UniProt P62593)
# [5] = read-out: KM^app, phosphate buffer pH 6.4, 25 °C
structure (smiles),measurement,setting,value
CC1(C)S[C@@H]2[C@H](NC(=O)[C@H](N)c3ccccc3)C(=O)N2[C@H]1C(=O)O [ampicillin],MIC,[1],400 µg/mL
same,MIC,[2],12800 µg/mL
same,kcat,BlaC WT,14 ± 2 s⁻¹
same,Km,BlaC WT; read-out: KM^app,68 ± 3 µM
same,kcat,"CTX-M-14 Y105G; phosphate buffer pH 6.4, 25 °C",48 ± 2 s⁻¹
same,Km,CTX-M-14 Y105G; [5],297 ± 10 µM
same,kcat,TEM-1 Y105G,601 ± 9 s⁻¹
same,Fi AVG (average fitness of replicates),[3]; KPC-2 AA 105 = Ala,-2.717
same,Fi AVG (average fitness of replicates),[3]; KPC-2 AA 105 = Arg,-1.311
same,Significance of average fitness,[3]; KPC-2 AA 105 = Arg,-
same,Fi AVG (average fitness of replicates),[3]; KPC-2 AA 105 = Asn,-2.270
same,Significance of average fitness,[3]; KPC-2 AA 105 = Asn,-
same,Fi AVG (average fitness of replicates),[3]; KPC-2 AA 105 = Cys,-1.421
same,Significance of average fitness,[3]; KPC-2 AA 105 = Cys,-
same,Fi AVG (average fitness of replicates),[3]; KPC-2 AA 105 = Gln,-2.210
same,Significance of average fitness,[3]; KPC-2 AA 105 = Gln,-
same,Fi AVG (average fitness of replicates),[3]; KPC-2 AA 105 = Glu,-2.582
same,Significance of average fitness,[3]; KPC-2 AA 105 = Glu,-
same,Fi AVG (average fitness of replicates),[3]; KPC-2 AA 105 = Gly,-1.606
same,Significance of average fitness,[3]; KPC-2 AA 105 = Gly,-
same,Fi AVG (average fitness of replicates),[3]; KPC-2 AA 105 = His,-0.658
same,Fi AVG (average fitness of replicates),[3]; KPC-2 AA 105 = Leu,-1.411
same,Significance of average fitness,[3]; KPC-2 AA 105 = Leu,-
same,Fi AVG (average fitness of replicates),[3]; KPC-2 AA 105 = Met,-2.639
same,Significance of average fitness,[3]; KPC-2 AA 105 = Met,-
same,Fi AVG (average fitness of replicates),[3]; KPC-2 AA 105 = Phe,-0.181
same,Fi AVG (average fitness of replicates),[3]; KPC-2 AA 105 = Pro,-1.601
same,Significance of average fitness,[3]; KPC-2 AA 105 = Pro,-
same,Fi AVG (average fitness of replicates),[3]; KPC-2 AA 105 = Ser,-2.329
same,Significance of average fitness,[3]; KPC-2 AA 105 = Ser,-
same,Fi AVG (average fitness of replicates),[3]; KPC-2 AA 105 = Thr,-2.338
same,Fi AVG (average fitness of replicates),"[3]; KPC-2 AA 105 = Trp (WT, reference)",0.000
same,Fi AVG (average fitness of replicates),[3]; KPC-2 AA 105 = Tyr,-1.608
same,Significance of average fitness,[3]; KPC-2 AA 105 = Tyr,-
same,Fi AVG (average fitness of replicates),[3]; KPC-2 AA 105 = Val,-2.672
same,Significance of average fitness,[3]; KPC-2 AA 105 = Val,-
same,WT abs Fi 1 (absolute fitness),"[3]; KPC-2 WT (Trp 105), replicate 1",0.183
same,WT abs Fi 2 (absolute fitness),"[3]; KPC-2 WT (Trp 105), replicate 2",0.061
same,WT abs Fi 3 (absolute fitness),"[3]; KPC-2 WT (Trp 105), replicate 3",0.422
same,Significance (Average fitnes AMP),[4]; AA 105 Ala,-
same,Fi AMP AVG,[4]; AA 105 Ala,-0.222
same,Fi AMP 1,"[4]; AA 105 Ala, replicate 1",-0.205
same,Fi AMP 2,"[4]; AA 105 Ala, replicate 2",-0.239
same,Significance (Average fitnes AMP),[4]; AA 105 Arg,-
same,Fi AMP AVG,[4]; AA 105 Arg,-0.576
same,Fi AMP 1,"[4]; AA 105 Arg, replicate 1",-0.568
same,Fi AMP 2,"[4]; AA 105 Arg, replicate 2",-0.584
same,Significance (Average fitnes AMP),[4]; AA 105 Asn,-
same,Fi AMP AVG,[4]; AA 105 Asn,-0.070
same,Fi AMP 1,"[4]; AA 105 Asn, replicate 1",-0.049
same,Fi AMP 2,"[4]; AA 105 Asn, replicate 2",-0.091
same,Significance (Average fitnes AMP),[4]; AA 105 Asp,-
same,Fi AMP AVG,[4]; AA 105 Asp,-0.429
same,Fi AMP 1,"[4]; AA 105 Asp, replicate 1",-0.401
same,Fi AMP 2,"[4]; AA 105 Asp, replicate 2",-0.457
same,Significance (Average fitnes AMP),[4]; AA 105 Cys,-
same,Fi AMP AVG,[4]; AA 105 Cys,-0.587
same,Fi AMP 1,"[4]; AA 105 Cys, replicate 1",-0.602
same,Fi AMP 2,"[4]; AA 105 Cys, replicate 2",-0.572
same,Significance (Average fitnes AMP),[4]; AA 105 Gln,-
same,Fi AMP AVG,[4]; AA 105 Gln,-0.282
same,Fi AMP 1,"[4]; AA 105 Gln, replicate 1",-0.271
same,Fi AMP 2,"[4]; AA 105 Gln, replicate 2",-0.293
same,Significance (Average fitnes AMP),[4]; AA 105 Glu,-
same,Fi AMP AVG,[4]; AA 105 Glu,-0.667
same,Fi AMP 1,"[4]; AA 105 Glu, replicate 1",-0.663
same,Fi AMP 2,"[4]; AA 105 Glu, replicate 2",-0.672
same,Significance (Average fitnes AMP),[4]; AA 105 Gly,-
same,Fi AMP AVG,[4]; AA 105 Gly,-0.061
same,Fi AMP 1,"[4]; AA 105 Gly, replicate 1",-0.036
same,Fi AMP 2,"[4]; AA 105 Gly, replicate 2",-0.087
same,Significance (Average fitnes AMP),[4]; AA 105 His,-
same,Fi AMP AVG,[4]; AA 105 His,-0.071
same,Fi AMP 1,"[4]; AA 105 His, replicate 1",-0.065
same,Fi AMP 2,"[4]; AA 105 His, replicate 2",-0.077
same,Significance (Average fitnes AMP),[4]; AA 105 Ile,-
same,Fi AMP AVG,[4]; AA 105 Ile,-0.580
same,Fi AMP 1,"[4]; AA 105 Ile, replicate 1",-0.558
same,Fi AMP 2,"[4]; AA 105 Ile, replicate 2",-0.602
same,Significance (Average fitnes AMP),[4]; AA 105 Leu,-
same,Fi AMP AVG,[4]; AA 105 Leu,-0.490
same,Fi AMP 1,"[4]; AA 105 Leu, replicate 1",-0.459
same,Fi AMP 2,"[4]; AA 105 Leu, replicate 2",-0.521
same,Significance (Average fitnes AMP),[4]; AA 105 Lys,-
same,Fi AMP AVG,[4]; AA 105 Lys,-0.754
same,Fi AMP 1,"[4]; AA 105 Lys, replicate 1",-0.749
same,Fi AMP 2,"[4]; AA 105 Lys, replicate 2",-0.759
same,Significance (Average fitnes AMP),[4]; AA 105 Met,-
same,Fi AMP AVG,[4]; AA 105 Met,-0.188
same,Fi AMP 1,"[4]; AA 105 Met, replicate 1",-0.138
same,Fi AMP 2,"[4]; AA 105 Met, replicate 2",-0.238
same,Significance (Average fitnes AMP),[4]; AA 105 Phe,-
same,Fi AMP AVG,[4]; AA 105 Phe,-0.048
same,Fi AMP 1,"[4]; AA 105 Phe, replicate 1",-0.041
same,Fi AMP 2,"[4]; AA 105 Phe, replicate 2",-0.054
same,Significance (Average fitnes AMP),[4]; AA 105 Pro,-
same,Fi AMP AVG,[4]; AA 105 Pro,-0.152
same,Fi AMP 1,"[4]; AA 105 Pro, replicate 1",-0.157
same,Fi AMP 2,"[4]; AA 105 Pro, replicate 2",-0.147
same,Significance (Average fitnes AMP),[4]; AA 105 Ser,-
same,Fi AMP AVG,[4]; AA 105 Ser,-0.203
same,Fi AMP 1,"[4]; AA 105 Ser, replicate 1",-0.219
same,Fi AMP 2,"[4]; AA 105 Ser, replicate 2",-0.186
same,Significance (Average fitnes AMP),[4]; AA 105 Thr,-
same,Fi AMP AVG,[4]; AA 105 Thr,-0.391
same,Fi AMP 1,"[4]; AA 105 Thr, replicate 1",-0.402
same,Fi AMP 2,"[4]; AA 105 Thr, replicate 2",-0.379
same,Fi AMP AVG,[4]; AA 105 Trp,0.019
same,Fi AMP 1,"[4]; AA 105 Trp, replicate 1",0.033
same,Fi AMP 2,"[4]; AA 105 Trp, replicate 2",0.006
same,Fi AMP AVG,[4]; AA 105 Tyr,0.000
same,Fi AMP 1,"[4]; AA 105 Tyr, replicate 1",0.000
same,Fi AMP 2,"[4]; AA 105 Tyr, replicate 2",0.000
same,Significance (Average fitnes AMP),[4]; AA 105 Val,-
same,Fi AMP AVG,[4]; AA 105 Val,-0.403
same,Fi AMP 1,"[4]; AA 105 Val, replicate 1",-0.371
same,Fi AMP 2,"[4]; AA 105 Val, replicate 2",-0.435
same,WT abs Fi 1,"[4]; absolute fitness of TEM-1 WT, AMP, replicate 1",0.351
same,WT abs Fi 2,"[4]; absolute fitness of TEM-1 WT, AMP, replicate 2",0.374
same,kcat,"TEM-1 WT; phosphate buffer pH 6.4, 25 °C",2359 ± 16 s⁻¹
same,Km,TEM-1 WT; [5],72 ± 1 µM
